± gives the standard deviation of the averaged measurements.
Tests used:
Experiment in all cases: level (log10 ratio to DMSO vehicle control); higher = higher biomarker level / cell amount than vehicle control
[1] = compound: C=C(C)C(=O)OCCC(F)(F)C(F)(F)C(F)(F)C(F)(F)C(F)(F)C(F)(F)C(F)(F)C(F)(F)F [8:2 Fluorotelomer methacrylate] (in DMSO)
Procedure: (§1)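 BioMAP Diversity Plus panel of 12 human primary cell co-culture systems (3C, 4H, LPS, SAg, BT, BF4T, BE3C, CASM3C, HDF3CGF, KF3CT, MyoF, Mphg). Compounds were added 1 h before stimulation and left for 24 h (MyoF 48 h; BT 72 h for soluble read-outs or 6 d for IgG). Biomarkers were read by ELISA, cytotoxicity by SRB, PBMC viability and proliferation by Alamar Blue. Each well value was divided by the mean of 8 DMSO control wells on the same plate and log10 transformed; duplicate blinded samples were tested at 4 concentrations.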

[2] = compound: C[C@@H]1C[C@H]2[C@@H]3CCC4=CC(=O)C=C[C@]4(C)[C@@]3(F)[C@@H](O)C[C@]2(C)[C@@]1(O)C(=O)COP(=O)(O)O [Dexamethasone sodium phosphate] (in DMSO)
Procedure: as §1

[3] = compound: NS(=O)(=O)C(F)(F)C(F)(F)C(F)(F)C(F)(F)C(F)(F)C(F)(F)C(F)(F)C(F)(F)F [Perfluorooctanesulfonamide] (in DMSO)
Procedure: as §1

Octafluoroadipic acid = compound: O=C(O)C(F)(F)C(F)(F)C(F)(F)C(F)(F)C(=O)O [Octafluoroadipic acid] (in DMSO)
Procedure: as §1

[4] = compound: O=S(=O)(O)C(F)(F)C(F)(F)C(F)(F)C(F)(F)C(F)(F)C(F)(F)C(F)(F)F [Perfluoroheptanesulfonic acid] (in DMSO)
Procedure: as §1

[5] = compound: OCC(F)(F)C(F)(F)C(F)(F)C(F)F [1H,1H,5H-Perfluoropentanol] (in DMSO)
Procedure: as §1

Test System	level (log10) ([1]; 6700 nM)	level (log10) ([1]; 20000 nM)	level (log10) ([2]; 1500 nM)	level (log10) ([2]; 4400 nM)	level (log10) ([2]; 13000 nM)	level (log10) ([2]; 40000 nM)	level (log10) ([3]; 6700 nM)	level (log10) ([3]; 20000 nM)	level (log10) (Octafluoroadipic acid; 6700 nM)	level (log10) (Octafluoroadipic acid; 20000 nM)	level (log10) (Octafluoroadipic acid; 60000 nM)	level (log10) ([4]; 1500 nM)	level (log10) ([4]; 4400 nM)	level (log10) ([4]; 13000 nM)	level (log10) ([4]; 40000 nM)	level (log10) ([5]; 6700 nM)	level (log10) ([5]; 20000 nM)	level (log10) ([5]; 60000 nM)
3C:CD87/uPAR	0.046 ± 0.018	0.049 ± 0.013	0.0545 ± 0.013	0.048 ± 0.02	0.0455 ± 0.00071	0.016 ± 0.016	0.006 ± 0.0099	-0.0425 ± 0.016	-0.023 ± 0.0057	-0.0175 ± 0.025	-0.014 ± 0.021	0.0655 ± 0.0078	0.0535 ± 0.021	0.0485 ± 0.044	0.0565 ± 0.064	-0.0135 ± 0.019	0.0015 ± 0.011	-0.0095 ± 0.013
3C:CXCL8/IL-8	-0.005 ± 0.017	0.0305 ± 0.012	0.014 ± 0.027	-0.0015 ± 0.0035	-0.0035 ± 0.032	-0.007 ± 0.062	0.012 ± 0.018	0.0635 ± 0.0064	0.001 ± 0.024	-0.0095 ± 0.005	0.0215 ± 0.025	0.007 ± 0.086	-0.0115 ± 0.013	0.0015 ± 0.03	0.055 ± 0.054	0.0115 ± 0.023	0.0035 ± 0.03	0.0545 ± 0.063
3C:CXCL9/MIG	-0.002 ± 0.0028	0.0055 ± 0.0035	0.0025 ± 0.0021	0.001 ± 0.0085	-0.004 ± 0.0071	0.003 ± 0.0085	0.0225 ± 0.021	0.006 ± 0.028	-0.002 ± 0.0028	-0.0095 ± 0.015	0.006 ± 0.0085	0.006 ± 0.0014	-0.006 ± 0.0071	0 ± 0.0057	0.0075 ± 0.011	0 ± 0.0057	-0.0035 ± 0.0064	0.0105 ± 0.00071
3C:HLA-DR	-0.0035 ± 0.035	0.0115 ± 0.028	-0.0025 ± 0.012	-0.0065 ± 0.022	0.0035 ± 0.0035	0.0135 ± 0.0035	-0.0115 ± 0.043	-0.118 ± 0.082	-0.007 ± 0.0099	-0.004 ± 0.021	0.0035 ± 0.0078	0.0125 ± 0.0064	-0.0075 ± 0.0092	-0.005 ± 0.024	0.008 ± 0.016	-0.02 ± 0.0028	-0.0075 ± 0.025	0.0385 ± 0.023
3C:Proliferation	-0.0315 ± 0.005	-0.07 ± 0.034	-0.0115 ± 0.005	0.011 ± 0.092	-0.0045 ± 0.052	0.015 ± 0.02	-0.039 ± 0.0099	-0.208 ± 0.02	-0.0705 ± 0.005	0.016 ± 0.013	-0.007 ± 0.03	-0.0785 ± 0.13	-0.0425 ± 0.044	0.0015 ± 0.022	-0.0275 ± 0.021	-0.0045 ± 0.066	0.005 ± 0.0071	-0.033 ± 0.093
3C:SRB	-0.0205 ± 0.0035	-0.01 ± 0.021	-0.0005 ± 0.00071	-0.005 ± 0.0085	-0.0025 ± 0.025	0.0035 ± 0.025	0.0135 ± 0.022	-0.088 ± 0.0042	-0.007 ± 0.016	-0.0045 ± 0.011	-0.016 ± 0.0028	-0.0295 ± 0.023	-0.0275 ± 0.0078	-0.0065 ± 0.016	-0.0125 ± 0.023	-0.011	-0.006 ± 0.03	-0.015 ± 0.011
4H:CCL2/MCP-1	-0.0075 ± 0.053	0.027 ± 0.034	-0.0075 ± 0.018	0.005 ± 0.033	0.017 ± 0.041	0.043 ± 0.025	-0.093 ± 0.023	-0.124 ± 0.0021	-0.03 ± 0.018	-0.0365 ± 0.025	0.03 ± 0.024	-0.0125 ± 0.094	0.0165 ± 0.081	0.03 ± 0.05	0.0135 ± 0.012	-0.0265 ± 0.046	-0.0115 ± 0.033	0.039 ± 0.055
4H:CCL26/Eotaxin-3	0.0035 ± 0.037	0 ± 0.02	-0.0175 ± 0.0035	-0.0315 ± 0.0035	-0.0285 ± 0.029	-0.052 ± 0.078	-0.0145 ± 0.013	-0.03 ± 0.042	0.022 ± 0.016	0.0185 ± 0.0092	0.016 ± 0.027	-0.006 ± 0.025	-0.061 ± 0.035	-0.0335 ± 0.011	-0.0665 ± 0.022	-0.008 ± 0.011	0.008 ± 0.0085	-0.005 ± 0.0071
4H:CD62P/P-selectin	-0.02 ± 0.02	-0.0375 ± 0.0035	-0.0355 ± 0.037	-0.038 ± 0.0042	-0.022 ± 0.011	-0.033 ± 0.047	0.028 ± 0.014	-0.0235 ± 0.018	-0.0075 ± 0.043	0.0065 ± 0.042	-0.007 ± 0.059	-0.0225 ± 0.043	-0.0165 ± 0.005	-0.002 ± 0.02	0.0305 ± 0.022	-0.0245 ± 0.0021	0.0205 ± 0.061	0.027 ± 0.038
4H:CD87/uPAR	-0.0325 ± 0.0035	-0.0345 ± 0.042	-0.0055 ± 0.0021	-0.0195 ± 0.022	-0.024 ± 0.086	-0.0375 ± 0.094	0.0155 ± 0.0064	-0.026 ± 0.028	0.04 ± 0.0071	0.039 ± 0.011	0.0345 ± 0.0064	-0.0135 ± 0.032	0.0325 ± 0.00071	0.0455 ± 0.005	0.0355 ± 0.029	-0.0225 ± 0.0092	0.0025 ± 0.019	0.007 ± 0.034
4H:CD106/VCAM-1	-0.035 ± 0.018	-0.0485 ± 0.0064	0.004 ± 0.02	-0.011 ± 0.0042	-0.012 ± 0.0028	-0.005 ± 0.011	0.013 ± 0.034	-0.0335 ± 0.044	-0.003 ± 0.0028	-0.007 ± 0.018	-0.007 ± 0.017	-0.002 ± 0.062	-0.029 ± 0.017	-0.0345 ± 0.019	-0.0295 ± 0.03	-0.0075 ± 0.0035	0.0115 ± 0.0021	0.018 ± 0.021
4H:SRB	-0.0205 ± 0.028	-0.0105 ± 0.042	0.001 ± 0.011	-0.0135 ± 0.005	0.005 ± 0.014	0.007 ± 0.038	-0.005 ± 0.011	-0.0815 ± 0.0021	-0.002 ± 0.013	0.0025 ± 0.00071	-0.0105 ± 0.0035	-0.0185 ± 0.012	-0.007 ± 0.014	-0.0055 ± 0.013	-0.0065 ± 0.018	-0.003 ± 0.0014	0.011 ± 0.0042	0.0065 ± 0.005
4H:VEGFR2	0.028 ± 0.023	0.015 ± 0.05	0.025 ± 0.0057	-0.0665 ± 0.057	-0.0115 ± 0.069	-0.004 ± 0.059	-0.0175 ± 0.035	-0.006 ± 0.044	0.0205 ± 0.029	0.0085 ± 0.05	0.0155 ± 0.042	0.023 ± 0.041	-0.013 ± 0.0085	-0.005 ± 0.044	0.043 ± 0.1	-0.021 ± 0.028	-0.0215 ± 0.0021	0.0395 ± 0.073
BE3C:CD54/ICAM-1	-0.012 ± 0.018	0.002 ± 0.061	-0.0035 ± 0.033	-0.0265 ± 0.005	-0.0205 ± 0.0021	-0.0105 ± 0.021	-0.008 ± 0.016	-0.001 ± 0.018	-0.0085 ± 0.0078	-0.0045 ± 0.013	0.01 ± 0.031	0.006 ± 0.027	0.0015 ± 0.022	-0.0025 ± 0.036	0.0055 ± 0.052	0.0095 ± 0.042	0.02 ± 0.0014	0.0175 ± 0.028
BE3C:CD87/uPAR	-0.0135 ± 0.023	0.0015 ± 0.036	-0.08 ± 0.048	-0.102 ± 0.0057	-0.108 ± 0.033	-0.096 ± 0.0042	-0.01 ± 0.0071	-0.0025 ± 0.019	-0.0115 ± 0.00071	0.0035 ± 0.00071	0.0125 ± 0.018	0.017 ± 0.024	-0.0045 ± 0.015	-0.0065 ± 0.03	0.05 ± 0.069	-0.012 ± 0.0085	-0.01 ± 0.0071	0 ± 0.027
BE3C:CXCL8/IL-8	-0.002 ± 0.014	-0.008 ± 0.0028	-0.094 ± 0.044	-0.137 ± 0.015	-0.171 ± 0.0092	-0.157 ± 0.011	-0.123 ± 0.0099	-0.192 ± 0.013	0.0325 ± 0.0092	0.0355 ± 0.021	0.058 ± 0.068	0.0105 ± 0.018	0.02 ± 0.0099	0.0405 ± 0.019	0.0595 ± 0.057	-0.0065 ± 0.077	0.0185 ± 0.12	0.0875 ± 0.12

— the supplement of paper PMC10331698
